Experimental findings from ChEMBL document CHEMBL1201862, “PubChem BioAssay data set” (2004) are described below.

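Dose response: 5 concentrations. Exposure: 48 h. Format: 96-well plates. Endpoint: linear interpolation; highest concentration if not reached. GI50 = concentration required for 50% inhibition of growth.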 Calls of active or inactive are those of the source. No stated cut-off is given here; in the data, active = GI50 up to about 1.1 µM and inactive = higher.

Some test systems named below: IGROV-1; SN12C; SF-268; CAKI-1; KM12; HOP-62; UO-31; SF-295; HT-29; TK-10; SNB-75; OVCAR-5; SK-MEL-28; NCI-H23; ACHN; M14; SR.
Assay in all cases: growth of human tumour cells (NCI), 48 h

Consider `CCCCCCCCCC1CC(=O)OC23CCCC(=O)C12O3` (stereo unspecified), for which the GI50 with IGROV-1 was > 100 µM (inactive); in the test on SN12C, > 100 µM (inactive); in the test on SF-268, > 100 µM (inactive); in the test with CAKI-1, > 100 µM (inactive); with KM12 it was 82.2 µM (inactive); with HOP-62 it was > 100 µM (inactive). For the same molecule, the GI50 in the test with UO-31, with SF-295, with HT-29, in the test with TK-10, with SNB-75 and in the test on OVCAR-5 was > 100 µM (inactive) throughout. In addition, the GI50 in the test with SK-MEL-28, with NCI-H23, in the test on ACHN and in the test on M14 was > 100 µM (inactive) in each case.
`O=C(Nc1cccc([N+](=O)[O-])c1)/C(=N\NC(=O)c1ccncc1)c1nc2ccc([N+](=O)[O-])cc2nc1O`: the GI50 was > 100 µM (inactive) in the test with IGROV-1; 42.7 µM (inactive) with SR; > 100 µM (inactive) in the test with SN12C; 40.7 µM (inactive) in the test with SF-268; 38.6 µM (inactive) with CAKI-1; 42.2 µM (inactive) in the test with KM12. The GI50 was 70 µM (inactive) in the test with HOP-62; 21.9 µM (inactive) with UO-31; 33.8 µM (inactive) with SF-295; 74.1 µM (inactive) with HT-29; 77.3 µM (inactive) in the test with OVCAR-5; 29.2 µM (inactive) in the test on SK-MEL-28. Besides, the GI50 in the test on NCI-H23 was 68.1 µM (inactive); in the test with ACHN, 19.7 µM (inactive); in the test with M14, > 100 µM (inactive).
As for `Nc1ccccc1C(=O)C(Br)C(Br)c1ccc2c(c1)OCO2` (stereo unspecified), the GI50 in the test with IGROV-1 was 28.6 µM (inactive); in the test with SR it was 46.1 µM (inactive); in the test on SN12C, 24.9 µM (inactive); in the test with SF-268, 26.4 µM (inactive); with KM12, 18 µM (inactive); with HOP-62, 21.8 µM (inactive). Besides, the GI50 in the test on UO-31 is 15.5 µM (inactive); in the test with SF-295, 27.6 µM (inactive); in the test with HT-29, 17.3 µM (inactive); in the test on TK-10, 27.4 µM (inactive); in the test on SNB-75, 20.9 µM (inactive); in the test on SK-MEL-28 it was 23.4 µM (inactive). In addition, the GI50 in the test on NCI-H23 is 19.9 µM (inactive); in the test with ACHN it was 18.2 µM (inactive); with M14 it was 18.4 µM (inactive).
On to `O=C1OC(c2ccc(Cl)c3ccccc23)c2ccccc21` (stereo unspecified), for which the GI50 in the test on IGROV-1 is > 100 µM (inactive); in the test with SR, > 100 µM (inactive); in the test with SN12C, > 100 µM (inactive); with SF-268, > 100 µM (inactive); with CAKI-1, 75.5 µM (inactive); in the test with KM12 it was > 100 µM (inactive). Moreover, the GI50 with HOP-62 was > 100 µM (inactive); in the test with UO-31, > 100 µM (inactive); with SF-295, 70.5 µM (inactive); in the test with HT-29 it was 55.3 µM (inactive); with SNB-75, 6.07 µM (inactive); in the test with OVCAR-5, > 100 µM (inactive). The GI50 in the test with SK-MEL-28, in the test with NCI-H23, with ACHN and in the test with M14 was > 100 µM (inactive) throughout.
`N#CC(C(=O)/C(=N/NC(=O)c1ccccc1O)C(C#N)c1ccc(Cl)cc1)c1ccc(Cl)cc1` (stereo unspecified): the GI50 with SN12C is 13.2 µM (inactive); with SF-268, 16.6 µM (inactive); in the test on KM12, 15.8 µM (inactive); with HOP-62, 20.7 µM (inactive); in the test with UO-31, 17.1 µM (inactive); in the test with SF-295, 16.4 µM (inactive). Also, the GI50 is 12.1 µM (inactive) with HT-29; 17.5 µM (inactive) in the test with TK-10; 3.56 µM (inactive) with SNB-75; 20 µM (inactive) in the test on OVCAR-5; 14.4 µM (inactive) with SK-MEL-28; 11.5 µM (inactive) in the test on NCI-H23. The GI50 was 16 µM (inactive) with ACHN and 19.2 µM (inactive) in the test on M14.
For the molecule `NC(=O)c1cccc([N+](=O)[O-])c1`, the GI50 in the test with IGROV-1, in the test with SN12C, with SF-268, with CAKI-1, with KM12 and in the test with HOP-62 was > 100 µM (inactive) in each case. Besides, the GI50 with UO-31, in the test on SF-295, with HT-29, in the test with TK-10, in the test with SNB-75 and in the test with SK-MEL-28 was > 100 µM (inactive) throughout. The GI50 with NCI-H23 and in the test on M14 was > 100 µM (inactive) each time.
As to `CSc1ccc2c(cc1=O)C(NC(=O)c1ccccc1)CCc1cc(O)c(O)c(O)c1-2` (stereo unspecified), the GI50 was 22 µM (inactive) in the test with IGROV-1; 18.4 µM (inactive) in the test with SN12C; 22.9 µM (inactive) with SF-268; 27.6 µM (inactive) in the test with CAKI-1; 4.81 µM (inactive) with KM12; 6.01 µM (inactive) in the test on HOP-62. Moreover, the GI50 in the test with UO-31 is 77.8 µM (inactive); with SF-295, 4.22 µM (inactive); in the test on HT-29 it was 32.3 µM (inactive); in the test on TK-10 it was 52.8 µM (inactive); in the test on SNB-75 it was 2.91 µM (inactive); in the test on OVCAR-5 it was > 100 µM (inactive). Besides, the GI50 was 24.5 µM (inactive) in the test with SK-MEL-28, 4.37 µM (inactive) in the test with NCI-H23, 37.6 µM (inactive) in the test on ACHN and 15.6 µM (inactive) in the test on M14.
On to `COc1ccc2c(c1)C1C(CO2)C(c2ccccc2)=NN1c1ccccc1` (stereo unspecified), for which the GI50 in the test on IGROV-1 was > 100 µM (inactive); in the test on SF-268 it was 89.3 µM (inactive); in the test with KM12, > 100 µM (inactive); in the test with HOP-62 it was > 100 µM (inactive); with UO-31, > 100 µM (inactive); with SF-295, > 100 µM (inactive). Further, the GI50 was > 100 µM (inactive) in the test on HT-29; > 100 µM (inactive) in the test with TK-10; 0.441 µM (active) with SNB-75; > 100 µM (inactive) with OVCAR-5; 70.3 µM (inactive) with SK-MEL-28; > 100 µM (inactive) in the test with NCI-H23. Also, the GI50 in the test on ACHN is > 100 µM (inactive).
As for `CCOc1ccc(/C=C(\Cl)c2ccc(OC)c(OC)c2)cc1`, the GI50 is 84.9 µM (inactive) in the test with IGROV-1; 12.2 µM (inactive) with SR; 60.3 µM (inactive) in the test on SN12C; 87.3 µM (inactive) with SF-268; 98.6 µM (inactive) in the test on HOP-62; 28.7 µM (inactive) with UO-31. Besides, the GI50 was 80.9 µM (inactive) with SF-295; 16.6 µM (inactive) in the test with HT-29; > 100 µM (inactive) in the test with SNB-75; 38.5 µM (inactive) in the test with SK-MEL-28; 19.3 µM (inactive) in the test with NCI-H23; 36.4 µM (inactive) with ACHN. Besides, in the test with M14, the GI50 was 25.3 µM (inactive).
Regarding `CNC(N)NC`, the GI50 in the test on IGROV-1, in the test with SR, in the test with SN12C, in the test with SF-268, in the test with KM12 and in the test on HOP-62 was > 100 µM (inactive) each time. Besides, the GI50 in the test with UO-31, in the test with SF-295, in the test with HT-29, in the test with TK-10, in the test on SNB-75 and in the test with OVCAR-5 was > 100 µM (inactive) throughout. The GI50 in the test with SK-MEL-28, with NCI-H23, with ACHN and in the test with M14 was > 100 µM (inactive) in each case.
Regarding `COc1cc(/C=C(\C#N)C(=O)c2ccccc2)ccc1O`, the GI50 in the test on IGROV-1, in the test on SR, in the test on SN12C, in the test with SF-268, in the test on CAKI-1 and with KM12 was > 100 µM (inactive) each time. Besides, the GI50 in the test with HOP-62, with UO-31, in the test on SF-295, with HT-29, with TK-10 and with OVCAR-5 was > 100 µM (inactive) in each case. For the same molecule, the GI50 in the test with SK-MEL-28, in the test on NCI-H23, with ACHN and with M14 was > 100 µM (inactive) in each case.
Regarding `COC(=O)C1CC/C(=N/C2c3ccccc3-c3ccccc32)N1` (stereo unspecified), the GI50 with IGROV-1, in the test on SN12C, with SF-268, with CAKI-1, in the test with KM12 and in the test with HOP-62 was > 100 µM (inactive) each time. The GI50 is > 100 µM (inactive) in the test with UO-31; > 100 µM (inactive) with SF-295; > 100 µM (inactive) in the test on HT-29; > 100 µM (inactive) in the test on TK-10; 58.6 µM (inactive) in the test with SNB-75; > 100 µM (inactive) in the test with OVCAR-5. For the same molecule, the GI50 in the test on SK-MEL-28, in the test on NCI-H23, with ACHN and in the test with M14 was > 100 µM (inactive) throughout.
Consider `COc1cc2c(cc1OC)C(O)[C@H](Br)C(C)(C)O2` (stereo partly specified), for which the GI50 in the test on IGROV-1, in the test with SR, with SN12C, in the test on SF-268, in the test with KM12 and in the test with HOP-62 was > 100 µM (inactive) each time. Also, the GI50 in the test with UO-31 is > 100 µM (inactive); with SF-295, > 100 µM (inactive); in the test on HT-29, > 100 µM (inactive); with TK-10, > 100 µM (inactive); with SNB-75 it was 84.3 µM (inactive); in the test on OVCAR-5, > 100 µM (inactive). In addition, the GI50 in the test on SK-MEL-28, with NCI-H23, with ACHN and in the test with M14 was > 100 µM (inactive) each time.
